Structures are written as SMILES. “And” between values parts separate entries of the source, which are not always exact repeats. Equal values may be shown once. Where a name gives a salt, the structure may show the parent alone. Read-outs that look alike come from different tables or passages of the source.

What is called Cmax is the peak of the concentration-time curve.

Series [1] deals with D2 receptors. As to the kind of experiment: [11C]-Raclopride PET: elevation of synaptic dopamine. How it is done:
Two female rhesus macaques (weight, 8.4 ± 0.2 kg; age, 16.6 ± 0.5) were scanned with [^11C]-Raclopride a total of 8 times, each under 4 scanning conditions per test agent. All scans were performed with [^11C]-Raclopride (tracer mass limited to 0.25 μg/kg) administered as an intravenous (i.v.) bolus + constant infusion (3 min bolus +132 min infusion; Kbol = 60 min; injected dose 5.8 ± 1.0 mCi). Scan data collection began simultaneously with tracer injection using the Siemens FOCUS 220 PET scanner. The scan data was acquired for 135 min and binned into sinograms with the following frame timing: 6 × 30 s; 3 × 1 min; 2 × 2 min; and 25 × 5 min. Prior to each tracer injection, a transmission scan was performed with an external gamma source for attenuation correction.
Experiment day 1 consisted of an initial [^11C]-Raclopride injection with MPH given i.v. at 45 min post-start of tracer administration under tracer steady-state conditions (displacement experiment). A second [^11C]-Raclopride scan was initiated ~ 2.5–3.5 h after the start of scan 1. Experiment day 2 consisted of a MPH pre-block initiated ~ 30 min prior to the first scan. A second scan was again initiated ~ 2.5–3.5 h after the start of scan 1. This same 2-day scanning paradigm was completed for both subjects and repeated using DAS in place of MPH. The test agent doses used were 0.2 mg/kg for DAS and 0.5 mg/kg for MPH. A minimum of 2-week recovery time was allowed between scans with the same subject.
Dynamic scan data were reconstructed with a filtered back-projection algorithm with corrections for attenuation, normalization, scatter, and randoms. ROIs were manually delineated on a single representative anatomical rhesus monkey magnetic resonance image (MRI) registered to a template image. Regions used in this study were caudate and putamen with the cerebellum as the reference region. Registration parameters were obtained to apply the ROIs to individual PET scans, and regional TACs were generated for the ROIs. Apparent binding potential (BPND) curves (target-to-cerebellum ratio - 1) were calculated for putamen and caudate by pooling the data from the 4 injections for each animal/drug combination. The following models were used to describe the apparent BPND curves. Model 1 is based on a gamma function where the occupancy increases, reaches a maximum, and then decreases, and both phases can be measured in the study. Model 2 has only increasing occupancy with time, approaching an asymptotic value. • Model 1: Four-parameter model (gamma function):
The change of BPND over time is modeled using a gamma function. BPNDt=BP01−At−t0^αexp−βt−t0t≥t0
The model can be reformulated as follows: BPNDt=BP01−Occ^maxt−t0/tmax−t0^αexpα1−t−t0/tmax−t0t≥t0α≡−ln2/1−τ+lnττ≡t1/2,R−t0/tmax−t0τ<1ort1/2,F−t0/tmax−t0τ>1 where t0 is the known time of drug administration and BP0 is the apparent BPND at time t0. The maximum occupancy, Occ^max, is obtained at time, tmax. The occupancy rises to 50% of Occ^max at the time, t1/2,R (< tmax), and falls to 50% of Occ^max at time, t1/2,F (> tmax). The 4 parameters of this model are BP0, Occ^max, tmax, and t1/2,R (or t1/2,F). • Model 2: Three-parameter model: BPNDt=BP01−Occ^max1−exp−βt−t0,β=ln2/t1/2,R−t0t≥t0
The parameters of this model are BP0, Occ^max, and t1/2,R.

A short description of series [2]: Tolerability and vital signs after i.v. administration. The class given is in vivo, rhesus macaques. Particulars: for Changes in heart rate, respiratory rate, blood pressure, oxygen saturation and temperature compared with baseline: after i.v. administration, data not shown; for Tolerability of i.v. administration: all doses examined. Here is the method: PET experiments within an animal were spaced at least 2 weeks apart to allow recovery from anesthesia. Animals were fasted for 18–24 h prior to each PET scan experiment. At 2–2.5 h before radiotracer injection, the animal was anesthetized with ketamine (10–15 mg/kg) and glycopyrrolate 0.01 mg/kg i.m., transferred to the PET camera, and intubated with an endotracheal tube for continued anesthesia with 2.0–2.5% isoflurane administered through a rebreathing circuit. An intravenous line was placed and used for injection of radiotracer and administration of the drug. A heated water blanket was used to maintain normal body temperature (37 °C). Vital signs, including heart rate, blood pressure, respiration rate, oxygen saturation, and body temperature, were monitored approximately every 1 to 15 min during the study (data not shown).
Animals tolerated i.v. administration of DAS or MPH at all doses examined.

A short description of series [3]: Plasma levels of DAS or MPH during the displacement studies. The class given is in vivo, rhesus macaques (Macaca mulatta). The following applies: for Average plasma (infusion period): individual animals A, B. Here is the method:
Venous blood samples (1 ml) were collected during the respective bolus and 4-step infusion displacement studies to measure the plasma levels of either DAS or MPH. Blood samples were collected in K3 EDTA vials, processed for plasma, frozen, and stored at − 20 °C until required for HPLC analysis of either DAS or MPH levels.

Where [4] appears, read: MPH 0.5 mg/kg i.v., model 1 fit.
The mark [5] stands for this setting: DAS 0.2 mg/kg i.v., model 2 fit.

For the compound `COC(=O)C(c1ccccc1)C1CCCCN1` (racemic) [MPH, (±)-Methyl α-Phenyl-α-(2-piperidyl)acetate hydrochloride, reference compound], in series [1] (setting [4]), the “Maximum reduction in [11C]-raclopride binding (Occmax) in caudate and putamen” value was determined as 27%. Also, the “Time for half-maximal displacement (t1/2,R) of [11C]-raclopride” value in series [1] (setting [4]) is recorded as 23 min. Also, the “Time for half-maximal displacement of [11C]-raclopride shorter than for DAS” value in series [1] (MPH 0.5 mg/kg relative to DAS 0.2 mg/kg) is 4 fold. Further, the “Changes in heart rate, respiratory rate, blood pressure, oxygen saturation and temperature compared with baseline” value in series [2] is “No changes outside physiologically accepted limits”. The “Tolerability of i.v. administration” value in series [2] was “tolerated”. Moreover, the “Cmax, Mean ± SD” value in series [3] (MPH 0.1 mg/kg i.v. 3 min bolus, group mean) stood at 169.2 ± 28.4 ng/mL. The Cmax in series [3] (MPH 0.1 mg/kg i.v. 3 min bolus, individual animals A-D) is 137 ng/mL and 177 ng/mL and 117 ng/mL; in series [3] (MPH 0.5 mg/kg i.v. 3 min bolus, individual animals A-D) it was 823 ng/mL and 609 ng/mL and 729 ng/mL; in series [3] (rhesus monkey, plasma, iv, 0.1 mg/kg, MPH 0.1 mg/kg i.v. 3 min bolus, group mean, read-out: Cmax, Mean ± SD), 169 ± 28.4 ng/mL; in series [3] (rhesus monkey, plasma, iv, 0.5 mg/kg, MPH 0.5 mg/kg i.v. 3 min bolus, group mean, read-out: Cmax, Mean ± SD), 823 ± 111 ng/mL; in series [3] (rhesus monkey, plasma, iv, 0.5 mg/kg, MPH 0.5 mg/kg i.v. 3 min bolus, individual animals A-D, read-out: Cmax) it was 1130 ng/mL. Moreover, the “Average plasma (infusion period)” value in series [3] (MPH 4.3 mg, bolus plus 4-step infusion over 40 min) was 111.9 ng/mL and 91.52 ng/mL.
For the compound `N[C@@H]1CC[C@@H](c2ccc(Cl)c(Cl)c2)c2ccccc21` [DAS, (1R,4S)-4-(3,4-dichlorophenyl)-1,2,3,4-tetra-hydronaphthalen-1-amine], the “Maximum reduction in [11C]-raclopride binding (Occmax) in caudate and putamen” value in series [1] (setting [5]) came to 29%. In addition, the “Time for half-maximal displacement (t1/2,R) of [11C]-raclopride” value in series [1] (setting [5]) is reported as 88 min. The “Time to 50% maximum displacement of [11C]-Raclopride / elevation of synaptic DA slower than MPH” value in series [1] (DAS relative to MPH) was ~ 4 fold and 4 fold. Besides, in series [2], the “Changes in heart rate, respiratory rate, blood pressure, oxygen saturation and temperature compared with baseline” value is listed as “No changes outside physiologically accepted limits”. Besides, the “Tolerability of i.v. administration” value in series [2] is on record as “tolerated”. Moreover, the Cmax is 87.9 ng/mL and 25.9 ng/mL and 102 ng/mL and 54.6 ng/mL in series [3] (DAS 0.1 mg/kg i.v. 3 min bolus, individual animals A-D); 213 ng/mL and 123 ng/mL in series [3] (DAS 0.2 mg/kg i.v. 3 min bolus, individual animals A-D); 71.9 ± 23.4 ng/mL in series [3] (rhesus monkey, plasma, iv, 0.1 mg/kg, DAS 0.1 mg/kg i.v. 3 min bolus, group mean, read-out: Cmax, Mean ± SD); 175 ± 26.9 ng/mL in series [3] (rhesus monkey, plasma, iv, 0.2 mg/kg, DAS 0.2 mg/kg i.v. 3 min bolus, group mean, read-out: Cmax, Mean ± SD); 190 ng/mL in series [3] (rhesus monkey, plasma, iv, 0.2 mg/kg, DAS 0.2 mg/kg i.v. 3 min bolus, individual animals A-D, read-out: Cmax). Also, the “Average plasma (infusion period)” value in series [3] (DAS 6.0 mg, bolus plus 4-step infusion over 40 min) was 34.86 ng/mL and 32.38 ng/mL. Also, in series [3] (DAS 6.0 mg, bolus plus 4-step infusion over 40 min, mean of two animals), the “Average plasma (infusion period), Mean” value came out at 33.62 ng/mL.

The values are drawn from paper PMC7651685 (Psychopharmacology, 2020).
